Reference: patent publication US10010545B1, “Antibiotic compositions and methods of use” (University of South Florida, priority 2013, dated 2018)

Assays:
[1] = test system: Enterococcus faecium; test: Growth testing against ESKAPE pathogens: Enterococcus faecium; assay type: cell-based; parameters: key: Growth; X: No Growth
Procedure: (§1) Six analogs (FIG. 2) of the ciprofloxacin-N thiolated β-lactam were successfully synthesized. All these compounds were then tested against ESKAPE pathogens for bioactivity. The ESKAPE pathogens are a collection of six deadly superbugs, Enterococcus faecium, Staphylococcus aureus, Klebsiella pneumoniae, Acinetobacter baumannii, Pseudomonas aeruginosa, and Enterobacter species. […] G denotes growth and X denotes no growth in the tables.

[2] = test system: Klebesiella pneumonia; test: Growth testing against ESKAPE pathogens: Klebesiella pneumonia; assay type: cell-based, Klebsiella pneumoniae; parameters: key: Growth; X: No Growth
Procedure: as §1

[3] = test system: Staphylococcus aureus; test: Growth testing against ESKAPE pathogens: Staphylococcus aureus; assay type: cell-based; parameters: key to Activity against Staphylococcus aureus (growth observed): Growth; X: No Growth
Procedure: as §1

[4] = test system: Acinetobacter baumannii; test: Growth testing against ESKAPE pathogens: Acinetobacter baumannii; assay type: cell-based; parameters: key: Growth; X: No Growth
Procedure: as §1

[5] = test system: Pseudomonas aeruginosa; test: Growth testing against ESKAPE pathogens: Pseudomonas aeruginosa; assay type: cell-based; parameters: key: Growth; X: No Growth
Procedure: as §1

CCCCCC(=O)N1CCN(c2cc3c(cc2F)c(=O)c(C(=O)OC2C(=O)N(SC)C2c2ccccc2)cn3C2CC2)CC1 (centres unmarked) [Lactam 126]
G: Activity against Enterococcus faecium (growth observed) ([1]; 1 μg/ml) | Activity against Enterococcus faecium (growth observed) ([1]; 2 μg/ml) | Activity against Enterococcus faecium (growth observed) ([1]; 3 μg/ml) | Activity against Enterococcus faecium (growth observed) ([1]; 4 μg/ml) | Activity against Enterococcus faecium (growth observed) ([1]; 5 μg/ml) | Activity against Enterococcus faecium (growth observed) ([1]; 6 μg/ml) | Activity against Enterococcus faecium (growth observed) ([1]; 7 μg/ml) | Activity against Enterococcus faecium (growth observed) ([1]; 8 μg/ml) | Activity against Enterococcus faecium (growth observed) ([1]; 9 μg/ml) | Activity against Enterococcus faecium (growth observed) ([1]; 10 μg/ml) | Activity against Enterococcus faecium (growth observed) ([1]; 25 μg/ml) | Activity against Klebesiella pneumonia (growth observed) ([2]; 1 μg/ml) | Activity against Klebesiella pneumonia (growth observed) ([2]; 2 μg/ml) | Activity against Klebesiella pneumonia (growth observed) ([2]; 3 μg/ml) | Activity against Klebesiella pneumonia (growth observed) ([2]; 4 μg/ml) | Activity against Klebesiella pneumonia (growth observed) ([2]; 5 μg/ml) | Activity against Klebesiella pneumonia (growth observed) ([2]; 6 μg/ml) | Activity against Klebesiella pneumonia (growth observed) ([2]; 7 μg/ml) | Activity against Klebesiella pneumonia (growth observed) ([2]; 8 μg/ml) | Activity against Klebesiella pneumonia (growth observed) ([2]; 9 μg/ml) | Activity against Klebesiella pneumonia (growth observed) ([2]; 10 μg/ml) | Activity against Klebesiella pneumonia (growth observed) ([2]; 25 μg/ml) | Activity against Staphylococcus aureus (growth observed) ([3]; 1 μg/ml) | Activity against Staphylococcus aureus (growth observed) ([3]; 2 μg/ml) | Activity against Staphylococcus aureus (growth observed) ([3]; 3 μg/ml) | Activity against Staphylococcus aureus (growth observed) ([3]; 4 μg/ml) | Activity against Staphylococcus aureus (growth observed) ([3]; 5 μg/ml) | Activity against Staphylococcus aureus (growth observed) ([3]; 6 μg/ml) | Activity against Staphylococcus aureus (growth observed) ([3]; 7 μg/ml) | Activity against Staphylococcus aureus (growth observed) ([3]; 8 μg/ml) | Activity against Staphylococcus aureus (growth observed) ([3]; 9 μg/ml) | Activity against Staphylococcus aureus (growth observed) ([3]; 10 μg/ml) | Activity against Staphylococcus aureus (growth observed) ([3]; 25 μg/ml) | Activity against Acinetobacter baumannii (growth observed) ([4]; 1 μg/ml) | Activity against Acinetobacter baumannii (growth observed) ([4]; 2 μg/ml) | Activity against Acinetobacter baumannii (growth observed) ([4]; 3 μg/ml) | Activity against Acinetobacter baumannii (growth observed) ([4]; 4 μg/ml) | Activity against Acinetobacter baumannii (growth observed) ([4]; 5 μg/ml) | Activity against Acinetobacter baumannii (growth observed) ([4]; 6 μg/ml) | Activity against Acinetobacter baumannii (growth observed) ([4]; 7 μg/ml) | Activity against Acinetobacter baumannii (growth observed) ([4]; 8 μg/ml) | Activity against Acinetobacter baumannii (growth observed) ([4]; 9 μg/ml) | Activity against Acinetobacter baumannii (growth observed) ([4]; 10 μg/ml) | Activity against Acinetobacter baumannii (growth observed) ([4]; 25 μg/ml) | Activity against Pseudomonas aeruginosa (growth observed) ([5]; 1 μg/ml) | Activity against Pseudomonas aeruginosa (growth observed) ([5]; 2 μg/ml) | Activity against Pseudomonas aeruginosa (growth observed) ([5]; 3 μg/ml) | Activity against Pseudomonas aeruginosa (growth observed) ([5]; 4 μg/ml) | Activity against Pseudomonas aeruginosa (growth observed) ([5]; 5 μg/ml) | Activity against Pseudomonas aeruginosa (growth observed) ([5]; 6 μg/ml) | Activity against Pseudomonas aeruginosa (growth observed) ([5]; 7 μg/ml) | Activity against Pseudomonas aeruginosa (growth observed) ([5]; 8 μg/ml) | Activity against Pseudomonas aeruginosa (growth observed) ([5]; 9 μg/ml) | Activity against Pseudomonas aeruginosa (growth observed) ([5]; 10 μg/ml) | Activity against Pseudomonas aeruginosa (growth observed) ([5]; 25 μg/ml)

CCCCCCC(=O)N1CCN(c2cc3c(cc2F)c(=O)c(C(=O)OC2C(=O)N(SC)C2c2ccccc2)cn3C2CC2)CC1 (centres unmarked) [Lactam 127]
G: Activity against Enterococcus faecium (growth observed) ([1]; 1 μg/ml) | Activity against Enterococcus faecium (growth observed) ([1]; 2 μg/ml) | Activity against Enterococcus faecium (growth observed) ([1]; 3 μg/ml) | Activity against Enterococcus faecium (growth observed) ([1]; 4 μg/ml) | Activity against Enterococcus faecium (growth observed) ([1]; 5 μg/ml) | Activity against Enterococcus faecium (growth observed) ([1]; 6 μg/ml) | Activity against Enterococcus faecium (growth observed) ([1]; 7 μg/ml) | Activity against Enterococcus faecium (growth observed) ([1]; 8 μg/ml) | Activity against Enterococcus faecium (growth observed) ([1]; 9 μg/ml) | Activity against Enterococcus faecium (growth observed) ([1]; 10 μg/ml) | Activity against Enterococcus faecium (growth observed) ([1]; 25 μg/ml) | Activity against Klebesiella pneumonia (growth observed) ([2]; 1 μg/ml) | Activity against Klebesiella pneumonia (growth observed) ([2]; 2 μg/ml) | Activity against Klebesiella pneumonia (growth observed) ([2]; 3 μg/ml) | Activity against Klebesiella pneumonia (growth observed) ([2]; 4 μg/ml) | Activity against Klebesiella pneumonia (growth observed) ([2]; 5 μg/ml) | Activity against Klebesiella pneumonia (growth observed) ([2]; 6 μg/ml) | Activity against Klebesiella pneumonia (growth observed) ([2]; 7 μg/ml) | Activity against Klebesiella pneumonia (growth observed) ([2]; 8 μg/ml) | Activity against Klebesiella pneumonia (growth observed) ([2]; 9 μg/ml) | Activity against Klebesiella pneumonia (growth observed) ([2]; 10 μg/ml) | Activity against Klebesiella pneumonia (growth observed) ([2]; 25 μg/ml) | Activity against Staphylococcus aureus (growth observed) ([3]; 1 μg/ml) | Activity against Staphylococcus aureus (growth observed) ([3]; 2 μg/ml) | Activity against Staphylococcus aureus (growth observed) ([3]; 3 μg/ml) | Activity against Staphylococcus aureus (growth observed) ([3]; 4 μg/ml) | Activity against Staphylococcus aureus (growth observed) ([3]; 5 μg/ml) | Activity against Staphylococcus aureus (growth observed) ([3]; 6 μg/ml) | Activity against Staphylococcus aureus (growth observed) ([3]; 7 μg/ml) | Activity against Staphylococcus aureus (growth observed) ([3]; 8 μg/ml) | Activity against Staphylococcus aureus (growth observed) ([3]; 9 μg/ml) | Activity against Staphylococcus aureus (growth observed) ([3]; 10 μg/ml) | Activity against Staphylococcus aureus (growth observed) ([3]; 25 μg/ml) | Activity against Acinetobacter baumannii (growth observed) ([4]; 1 μg/ml) | Activity against Acinetobacter baumannii (growth observed) ([4]; 2 μg/ml) | Activity against Acinetobacter baumannii (growth observed) ([4]; 3 μg/ml) | Activity against Acinetobacter baumannii (growth observed) ([4]; 4 μg/ml) | Activity against Acinetobacter baumannii (growth observed) ([4]; 5 μg/ml) | Activity against Acinetobacter baumannii (growth observed) ([4]; 6 μg/ml) | Activity against Acinetobacter baumannii (growth observed) ([4]; 7 μg/ml) | Activity against Acinetobacter baumannii (growth observed) ([4]; 8 μg/ml) | Activity against Acinetobacter baumannii (growth observed) ([4]; 9 μg/ml) | Activity against Acinetobacter baumannii (growth observed) ([4]; 10 μg/ml) | Activity against Acinetobacter baumannii (growth observed) ([4]; 25 μg/ml) | Activity against Pseudomonas aeruginosa (growth observed) ([5]; 1 μg/ml) | Activity against Pseudomonas aeruginosa (growth observed) ([5]; 2 μg/ml) | Activity against Pseudomonas aeruginosa (growth observed) ([5]; 3 μg/ml) | Activity against Pseudomonas aeruginosa (growth observed) ([5]; 4 μg/ml) | Activity against Pseudomonas aeruginosa (growth observed) ([5]; 5 μg/ml) | Activity against Pseudomonas aeruginosa (growth observed) ([5]; 6 μg/ml) | Activity against Pseudomonas aeruginosa (growth observed) ([5]; 7 μg/ml) | Activity against Pseudomonas aeruginosa (growth observed) ([5]; 8 μg/ml) | Activity against Pseudomonas aeruginosa (growth observed) ([5]; 9 μg/ml) | Activity against Pseudomonas aeruginosa (growth observed) ([5]; 10 μg/ml) | Activity against Pseudomonas aeruginosa (growth observed) ([5]; 25 μg/ml)
